Experimental data as given in paper PMC9936538, “Structure–Activity Relationship of N-Ethyl-Hexedrone Analogues: Role of the α-Carbon Side-Chain Length in the Mechanism of Action, Cytotoxicity, and Behavioral Effects in Mice” (ACS Chemical Neuroscience, 2023).

What was measured:
[1] = Cytotoxicity in NGF-differentiated PC12 cells, WST-8 cell viability assay; format: cell-based; settings: rat, WST-8, 24 h exposure, mean ± SEM of 3–4 experiments, read-out: LC50 (approximated), cell viability
Experimental: (§1) Pheochromocytoma cells (PC12) cells were cultured in collagen-coated dishes in DMEM supplemented with heat-inactivated 5% FBS, 10% horse serum, 10 mM HEPES, 2 mM glutamine, 25 UI/mL penicillin, and 25 μg/mL streptomycin (maintenance medium) and grown at 37 °C in a humidified 5% CO2 atmosphere. Cell differentiation was performed as described[54] with minor modifications. In brief, cells were seeded (250.000 cells/well) onto 96-well plates in the maintenance medium, and after 24 h, the medium was changed to a differentiation medium containing 50 ng/mL NGF. After 24 h, neurite outgrowth was already apparent.
(§2) Treatments with different concentrations of the drug in DMEM were performed 48 h after cell differentiation. 10 μL of the tested drug was added per well, in triplicate, and cells were incubated for 24 h at 37 °C in a humidified 5% CO2 atmosphere. Thereafter, the medium was removed and immediately replaced with a maintenance medium. 10 μL of the CCK-8 Cell Counting Kit, based on 2-(2-methoxy-4-nitrophenyl)-3-(4-nitrophenyl)-5-(2,4-disulfophenyl)-2H-tetrazolium, monosodium salt (WST-8), was added per well and was incubated for 2 h at 37 °C in a humidified 5% CO2 atmosphere. This method has been defined as a good alternative to the 3-(4,5-dimethylthiazol-2-yl)-2,5-diphenyltetrazoliumbromide (MTT) assay.[63] Optical density was measured at 450 nm, using a microplate reader.
(§3) For in vitro assays, data were normalized with 100% defined as the mean of the technical replicates in the control group and expressed as mean ± SEM. Nonlinear regression was used to fit the different competition curves. Data were plotted and best fitted to a sigmoidal dose–response curve from which an IC50 or LC50 value was obtained. Transporter ratios were calculated as (1/DAT IC50: 1/SERT IC50). Although IC50 values at inhibiting 5-HT uptake for some compounds tested are expressed as >100 μM for clarity purposes, DAT/SERT ratios were calculated with the original raw data. The Cheng–Prusoff equation was used to calculate Ki (affinity): Ki = EC50/(1 + [radioligand concentration/Kd]).[65] The sample size for behavioral experiments was determined using GPower software. One-way or two-way ANOVA, and subsequent Tukey’s posthoc test, conducted only if F was significant, was used to determine the effects of cathinones on cytotoxicity, HLA, OF, and CPP experiments. The α error probability was set at 0.05 (p < 0.05). The exact size group for the behavioral experiments is shown in the corresponding figure legends. All statistic calculations were carried out using GraphPad Prism (GraphPad software, San Diego, CA, USA).

Swiss CD-1 mice [2] = test: Conditioned place preference (CPP); format: in vivo; settings: for CPP preference score vs saline: 3 mg/kg i.p.
Experimental: (§4) Male Swiss CD-1 mice (Janvier, Le Genest, France) weighing 30–35 g (6–8 weeks old), housed in temperature-controlled conditions (22 ± 1 °C) under a 12 h light/dark cycle and with free access to food and drinking water (standard laboratory diet, Panlab SL, Barcelona, Spain), were randomly assigned to an experimental group. Efforts were made to minimize animal use and suffering.
The potential of the studied compounds to induce reward was determined using a place conditioning paradigm, as described.[6] For this experiment, an apparatus with two distinct compartments, with differences in tactile and visual cues, communicated by a central corridor, has been used. In brief, CPP was performed in three phases: preconditioning test, conditioning, and postconditioning test. During the preconditioning phase (day 0), mice were placed in the middle of the corridor and had free access to both compartments for 15 min. The time spent in each compartment was recorded and monitored using a specific tracking software (Smart 3.0 Panlab, Barcelona, Spain). […] In the alternative session, mice received a saline i.p. injection and were placed for 20 min in the other compartment. Mice in the control group received a saline injection in every session. The compartment and session in which mice received the drug were randomized. On the test day (postconditioning phase), the same conditions as in the preconditioning phase were applied. A preference score was calculated as the difference between the time spent in the drug-paired compartment in the postconditioning test minus the time spent in the preconditioning phase.

Swiss CD-1 mice [3] = test: Open-field (OF) test, center versus periphery (anxiety-like behavior); format: in vivo; settings: 10 mg/kg i.p.
Experimental: as §4
The anxiety-like effects of the test compounds were assessed through an OF test as described.[64] Animals were placed individually in the center of an open-field arena (25 cm length × 25 cm width × 40 cm height), and the time spent, in seconds, in the center (8 × 8 cm) or the periphery of the arena was monitored for 60 min (Smart 3.0 Panlab, Barcelona, Spain).

Swiss CD-1 mice [4] = system: Swiss CD-1 mice; parameters: method as in PMID 33155384; settings: 10 and 25 mg/kg injections; cited from earlier work
Swiss CD-1 mice [5] = system: Swiss CD-1 mice; parameters: method as in PMID 32535718; settings: 4 and 16 mg/kg subcutaneous injections; cited from earlier work
[6] = system: NGF-differentiated PC12 cells; test: Cytotoxicity in NGF-differentiated PC12 cells, WST-8 cell viability assay; format: cell-based; settings: WST-8, 0.01–8.00 mM, 24 h
Experimental: as §1, §2, §3

SMILES | CC50 at 24 h [1] | CPP preference score vs saline (Swiss CD-1 mice [2]) | CPP rewarding effect vs saline (Swiss CD-1 mice [2]; 10 mg/kg i.p.) | anxiogenic effect in OF test (Swiss CD-1 mice [3]) | locomotor activity (Swiss CD-1 mice [4]) | CPP (Swiss CD-1 mice [5]) | concentration at which cytotoxicity starts [6] | CPP rewarding effect vs saline (Swiss CD-1 mice [2]; any dose tested (3, 10, 30 mg/kg i.p.))
CCNC(C)C(=O)c1ccccc1 (centres unmarked) [NEC, N-ethyl-cathinone] | 3.97 mM | significant preference score | produce rewarding effects | – | – | – | – | –
CCCCC(NCC)C(=O)c1ccccc1 (centres unmarked) [NEH, N-ethyl-hexedrone] | 3.28 mM | – | produce rewarding effects | acute anxiogenic effects | increase in locomotor activity | significant CPP | – | –
CCCCCC(NCC)C(=O)c1ccccc1 (centres unmarked) [NEHP, N-ethyl-heptedrone] | 1.26 mM | – | – | – | – | – | 100 µM | did not induce a significant rewarding effect
CCCC(NCC)C(=O)c1ccccc1 (centres unmarked) [NEPD, N-ethyl-pentedrone] | 3.82 mM | significant preference score | produce rewarding effects | – | – | – | – | –
CCNC(CC)C(=O)c1ccccc1 (centres unmarked) [NEB, N-ethyl-buphedrone] | 6.24 mM | significant preference score | produce rewarding effects | – | – | – | – | –
